{"source": "patent US9616062B2", "about": "“Cyclin dependent kinase inhibitors and methods of use” (priority 2009, dated 2017)", "type_in_all_cases": "cell-based", "key": {"[1]": {"test_system": "primary human renal proximal tubule epithelial cells", "experiment": "γH2AX flow cytometry assay of etoposide-induced DNA damage", "conditions": "0, 100 nM, 300 nM or 1 μM for 16 h, then 2.5 μM etoposide for 8 h", "procedure": "Cells were pretreated for 16 hours with PD0332991 followed by 8 hours with etoposide (Etop). Cells were collected, fixed and stained with anti-γH2AX FITC and analyzed by flow cytometry. Data was analyzed using FlowJo (Treestar, Inc., Ashland, Oreg., United States of America). The % γH2AX positive cells are shown in the accompanying graph.\nPrimary normal human renal proximal epithelial cells (American Type Culture Collection (ATCC), Manassas, Va., United States of America) were cultured in renal epithelial cell basal media supplemented with renal epithelial cell growth kit according to the manufacturer's recommendations. […] For the γH2AX assay, cells were fixed, permeabilized, and stained with anti-γH2AX as per γH2AX Flow Kit (Millipore, Billerica, Mass., United States of America). γH2AX levels were assessed by flow cytometry. Cell proliferation was assessed by seeding 1×10^3 cells per well in a 96-well tissue culture plate in 100 μL of growth medium. […] At the end of the recovery period, cell number was quantified using CellTiter-Glo® (Promega, Fitchburg, Wis., United States of America) or WST-1 reagent (TaKaRa Bio USA, Madison, Wis., United States of America). Cellular cytotoxicity was assessed using the TOXILIGHT™ Bioassay kit (Lonza, Basel, Switzerland) which measures cytolysis by quantifying the release of Adenylate Kinase into the culture media. […]"}, "[2]": {"test_system": "primary human renal proximal tubule epithelial cells", "experiment": "Protection from etoposide-induced cell death, CellTiter-Glo on day 7", "conditions": "16 h pretreatment, 2.5 μM etoposide 8 h, 7 days recovery", "procedure": "FIG. 5: CDK4/6 inhibition protects primary human renal proximal tubule epithelial cells from etoposide-induced cell death. PD0332991 inhibits chemotherapy-induced cytotoxicity in a cdk4/6 dependent manner. Primary human renal proximal tubule epithelial cells were incubated with 30 nM or 100 nM PD0332991 for 16 hours. Etoposide (Etop, 2.5 μM) was added for 8 hours. Following incubation, the media was replaced with fresh media and the cells were incubated for an additional 7 days. On day 7, cell proliferation was assessed using CellTiter-Glo® (Promega, Madison, Wis., United States of America). Error bars show +/−standard deviation.\nPrimary normal human renal proximal epithelial cells (American Type Culture Collection (ATCC), Manassas, Va., United States of America) were cultured in renal epithelial cell basal media supplemented with renal epithelial cell growth kit according to the manufacturer's recommendations. […] For the γH2AX assay, cells were fixed, permeabilized, and stained with anti-γH2AX as per γH2AX Flow Kit (Millipore, Billerica, Mass., United States of America). γH2AX levels were assessed by flow cytometry. Cell proliferation was assessed by seeding 1×10^3 cells per well in a 96-well tissue culture plate in 100 μL of growth medium. […] 100 μL of TOXILIGHT™ reagent is added and incubated for 5 minutes and read in a luminometer at 1 second/well. […]"}, "[3]": {"test_system": "H417 small cell lung cancer cell line (intact RB)", "experiment": "SCLC cell proliferation, WST-1, RB-intact line", "conditions": "100 nM", "procedure": "FIG. 8: CDK4/6 inhibition potentiates proliferation of Rb deficient cells. […] Cell proliferation was assessed using WST-1 reagent. Each data point represents the mean of four replicates +/−SEM. CDK4/6 inhibition increases cell proliferation of RB-deficient cell lines.\nPrimary normal human renal proximal epithelial cells (American Type Culture Collection (ATCC), Manassas, Va., United States of America) were cultured in renal epithelial cell basal media supplemented with renal epithelial cell growth kit according to the manufacturer's recommendations. […] For the γH2AX assay, cells were fixed, permeabilized, and stained with anti-γH2AX as per γH2AX Flow Kit (Millipore, Billerica, Mass., United States of America). γH2AX levels were assessed by flow cytometry. Cell proliferation was assessed by seeding 1×10^3 cells per well in a 96-well tissue culture plate in 100 μL of growth medium. […] At the end of the recovery period, cell number was quantified using CellTiter-Glo® (Promega, Fitchburg, Wis., United States of America) or WST-1 reagent (TaKaRa Bio USA, Madison, Wis., United States of America). Cellular cytotoxicity was assessed using the TOXILIGHT™ Bioassay kit (Lonza, Basel, Switzerland) which measures cytolysis by quantifying the release of Adenylate Kinase into the culture media. […] 100 μL of TOXILIGHT™ reagent is added and incubated for 5 minutes and read in a luminometer at 1 second/well. […]"}}}
{"smiles": "CC(=O)c1c(C)c2cnc(Nc3ccc(N4CCNCC4)cn3)nc2n(C2CCCC2)c1=O", "note": "[PD0332991, 6-acetyl-8-cyclopentyl-5-methyl-2-(5-piperazin-1-yl-pyridin-2-ylamino)-8H-pyrido-[2,3-d]-pyrimidin-7-one]", "values": [{"measurement": "etoposide-induced DNA damage (% γH2AX positive cells)", "setting": "[1]", "value": "abrogates etoposide-induced DNA damage"}, {"measurement": "protection from etoposide-induced cell death", "setting": "[2]", "value": "protection from etoposide induced cell death"}, {"measurement": "cell proliferation (WST-1) vs DMSO", "setting": "[3]", "value": "decreased"}]}
